Measurements taken from US20240043404A1 (AbbVie Inc., priority 2009, published 2024).

These compounds were tested on RS4;11 cells (assay: RS4;11 cell viability assay (CellTiter Glo)). Conditions: Homo sapiens, RS4-11, 48 h, 50,000 cells per well, 10% human serum, 48 hours; read-out: RS4; 11 EC50 Values.
Type: cell-based, human
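Note: acute lymphoblastic leukemia line RS4,11, EC50 derived from percentage of viable cells after treatment relative to untreated controls, cell killing taken as a measure of Bcl-2 inhibition.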
Protocol: The acute lymphoblastic leukemia (ALL) cell line RS4;11 was used as the primary human cell line to assess the cellular activity of Bcl-2 selective agents in vitro and their efficacy in vivo.
Cell cytotoxicity EC50 values were assessed using CellTiter Glo (Promega) according to the manufacturer's recommendations. The EC50 values were determined as a percentage of viable cells following treatment compared to the untreated control cells.

| SMILES | EC50 [µM] |
| --- | --- |
| CC1(C)CCC(CN2CCN(c3ccc(C(=O)NS(=O)(=O)c4ccc(OCC#CCN5CCOCC5)c([N+](=O)[O-])c4)c(Oc4cnc5[nH]ccc5c4)c3)CC2)=C(c2ccc(Cl)cc2)C1 [Example 68, 4-(4-{[2-(4-chlorophenyl)-4,4-dimethylcyclohex-1-en-1-yl]methyl}piperazin-1-yl)-N-({4-[(4-morpholin-4-ylbut-2-ynyl)oxy]-3-nitrophenyl}sulfonyl)-2-(1H-pyrrolo[2,3-b]pyridin-5-yloxy)benzamide] | 0.108 |
| CC1(C)CCC(CN2CCN(c3ccc(C(=O)NS(=O)(=O)c4cnc(OCC5(F)CCN(C(CF)CF)CC5)c(C(F)(F)F)c4)c(Oc4cnc5[nH]ccc5c4)c3)CC2)=C(c2ccc(Cl)cc2)C1 [Example 288, 4-(4-{[2-(4-chlorophenyl)-4,4-dimethylcyclohex-1-en-1-yl]methyl}piperazin-1-yl)-N-{[6-{[1-(1,3-difluoropropan-2-yl)-4-fluoropiperidin-4-yl]methoxy}-5-(trifluoromethyl)pyridin-3-yl]sulfonyl}-2-(1H-pyrrolo[2,3-b]pyridin-5-yloxy)benzamide] | 0.39 |
| CC1(C)CCC(CN2CCN(c3ccc(C(=O)NS(=O)(=O)c4cc(F)c(OCC5(F)CCOCC5)c(F)c4)c(Oc4cnc5[nH]ccc5c4)c3)CC2)=C(c2ccc(Cl)cc2)C1 [Example 310, 4-(4-{[2-(4-chlorophenyl)-4,4-dimethylcyclohex-1-en-1-yl]methyl}piperazin-1-yl)-N-({3,5-difluoro-4-[(4-fluorotetrahydro-2H-pyran-4-yl)methoxy]phenyl}sulfonyl)-2-(1H-pyrrolo[2,3-b]pyridin-5-yloxy)benzamide] | > 1 |
| CC1(C)CCC(CN2CCN(c3ccc(C(=O)NS(=O)(=O)c4ccc(NC5CN(C(CF)CF)C5)c([N+](=O)[O-])c4)c(Oc4cnc5[nH]ccc5c4)c3)CC2)=C(c2ccc(Cl)cc2)C1 [Example 151, 4-(4-{[2-(4-chlorophenyl)-4,4-dimethylcyclohex-1-en-1-yl]methyl}piperazin-1-yl)-N-{[4-({1-[2-fluoro-1-(fluoromethyl)ethyl]azetidin-3-yl}amino)-3-nitrophenyl]sulfonyl}-2-(1H-pyrrolo[2,3-b]pyridin-5-yloxy)benzamide] | 0.0337 |
| CC1(C)CCC(CN2CCN(c3ccc(C(=O)NS(=O)(=O)c4ccc(N[C@H]5CCCNC5=O)c([N+](=O)[O-])c4)c(Oc4cnc5[nH]ccc5c4)c3)CC2)=C(c2ccc(Cl)cc2)C1 [Example 160, 4-(4-{[2-(4-chlorophenyl)-4,4-dimethylcyclohex-1-en-1-yl]methyl}piperazin-1-yl)-N-[(3-nitro-4-{[(3S)-2-oxopiperidin-3-yl]amino}phenyl)sulfonyl]-2-(1H-pyrrolo[2,3-b]pyridin-5-yloxy)benzamide] | 0.0836 |
| CC1(C)CCC(CN2CCN(c3ccc(C(=O)NS(=O)(=O)c4ccc(NN5CCN(C6COC6)CC5)c([N+](=O)[O-])c4)c(Oc4cnc5[nH]ccc5c4)c3)CC2)=C(c2ccc(Cl)cc2)C1 [Example 236, 4-(4-{[2-(4-chlorophenyl)-4,4-dimethylcyclohex-1-en-1-yl]methyl}piperazin-1-yl)-N-[(3-nitro-4-{[4-(oxetan-3-yl)piperazin-1-yl]amino}phenyl)sulfonyl]-2-(1H-pyrrolo[2,3-b]pyridin-5-yloxy)benzamide] | 0.0429 |
| CC1(C)CCC(CN2CCN(c3ccc(C(=O)NS(=O)(=O)c4ccc(NC5CCN(CC(F)(F)F)CC5)c([N+](=O)[O-])c4)c(Oc4cnc5[nH]ccc5c4)c3)CC2)=C(c2ccc(Cl)cc2)C1 [Example 83, 4-(4-{[2-(4-chlorophenyl)-4,4-dimethylcyclohex-1-en-1-yl]methyl}piperazin-1-yl)-N-[(3-nitro-4-{[1-(2,2,2-trifluoroethyl)piperidin-4-yl]amino}phenyl)sulfonyl]-2-(1H-pyrrolo[2,3-b]pyridin-5-yloxy)benzamide] | 0.197 |
| CCN(C)C(=O)N1CCOC(CNc2ncc(S(=O)(=O)NC(=O)c3ccc(N4CCN(CC5=C(c6ccc(Cl)cc6)CC(C)(C)CC5)CC4)cc3Oc3cnc4[nH]ccc4c3)cc2Cl)C1 (stereo not drawn) [Example 336, 2-{[(3-chloro-5-{[4-(4-{[2-(4-chlorophenyl)-4,4-dimethylcyclohex-1-en-1-yl]methyl}piperazin-1-yl)-2-(1H-pyrrolo[2,3-b]pyridin-5-yloxy)benzoyl]sulfamoyl}pyridin-2-yl)amino]methyl}-N-ethyl-N-methylmorpholine-4-carboxamide] | 0.351 |
| CC1(C)CCC(CN2CCN(c3ccc(C(=O)NS(=O)(=O)c4ccc(NN5CCN(C(=O)OC(C)(C)C)CC5)c([N+](=O)[O-])c4)c(Oc4cnc5[nH]ccc5c4)c3)CC2)=C(c2ccc(Cl)cc2)C1 [Example 232, tert-butyl 4-[(4-{[4-(4-{[2-(4-chlorophenyl)-4,4-dimethylcyclohex-1-en-1-yl]methyl}piperazin-1-yl)-2-(1H-pyrrolo[2,3-b]pyridin-5-yloxy)benzoyl]sulfamoyl}-2-nitrophenyl)amino]piperazine-1-carboxylate] | > 1 |
| CC1(C)CCC(CN2CCN(c3ccc(C(=O)NS(=O)(=O)c4ccc(N[C@H]5CCN(CC(F)F)C5)c([N+](=O)[O-])c4)c(Oc4cnc5[nH]ccc5c4)c3)CC2)=C(c2ccc(Cl)cc2)C1 [Example 182, 4-(4-{[2-(4-chlorophenyl)-4,4-dimethylcyclohex-1-en-1-yl]methyl}piperazin-1-yl)-N-[(4-{[(3S)-1-(2,2-difluoroethyl)pyrrolidin-3-yl]amino}-3-nitrophenyl)sulfonyl]-2-(1H-pyrrolo[2,3-b]pyridin-5-yloxy)benzamide] | 0.123 |
| CC1(C)CCC(CN2CCN(c3ccc(C(=O)NS(=O)(=O)c4ccc(NCC5COCCN5C5CCOCC5)c([N+](=O)[O-])c4)c(Oc4cnc5[nH]ccc5c4)c3)CC2)=C(c2ccc(Cl)cc2)C1 (stereo not drawn) [Example 169, 4-(4-{[2-(4-chlorophenyl)-4,4-dimethylcyclohex-1-en-1-yl]methyl}piperazin-1-yl)-N-[(3-nitro-4-{[(4-tetrahydro-2H-pyran-4-ylmorpholin-3-yl)methyl]amino}phenyl)sulfonyl]-2-(1H-pyrrolo[2,3-b]pyridin-5-yloxy)benzamide] | 0.0763 |

The next compounds have a lower EC50 than those just listed; values first:

| EC50 [µM] | SMILES |
| --- | --- |
| 0.0204 | CC1(C)CCC(CN2CCN(c3ccc(C(=O)NS(=O)(=O)c4ccc(NCC5CCN(S(C)(=O)=O)C5)c([N+](=O)[O-])c4)c(Oc4cnc5[nH]ccc5c4)c3)CC2)=C(c2ccc(Cl)cc2)C1 (stereo not drawn) [Example 152, 4-(4-{[2-(4-chlorophenyl)-4,4-dimethylcyclohex-1-en-1-yl]methyl}piperazin-1-yl)-N-{[4-({[1-(methylsulfonyl)pyrrolidin-3-yl]methyl}amino)-3-nitrophenyl]sulfonyl}-2-(1H-pyrrolo[2,3-b]pyridin-5-yloxy)benzamide] |
| 0.0199 | COCCOCCN1CC[C@@H](Nc2ccc(S(=O)(=O)NC(=O)c3ccc(N4CCN(CC5=C(c6ccc(Cl)cc6)CC(C)(C)CC5)CC4)cc3Oc3cnc4[nH]ccc4c3)cc2[N+](=O)[O-])C1 [Example 254, 4-(4-{[2-(4-chlorophenyl)-4,4-dimethylcyclohex-1-en-1-yl]methyl}piperazin-1-yl)-N-{[4-({(3R)-1-[2-(2-methoxyethoxy)ethyl]pyrrolidin-3-yl}amino)-3-nitrophenyl]sulfonyl}-2-(1H-pyrrolo[2,3-b]pyridin-5-yloxy)benzamide] |
| 0.0106 | CC1(C)CCC(CN2CCN(c3ccc(C(=O)NS(=O)(=O)c4ccc(N[C@@H]5CCN(C6CCOCC6)C5)c([N+](=O)[O-])c4)c(Oc4cnc5[nH]ccc5c4)c3)CC2)=C(c2ccc(Cl)cc2)C1 [Example 130, 4-(4-{[2-(4-chlorophenyl)-4,4-dimethylcyclohex-1-en-1-yl]methyl}piperazin-1-yl)-N-[(3-nitro-4-{[(3R)-1-tetrahydro-2H-pyran-4-ylpyrrolidin-3-yl]amino}phenyl)sulfonyl]-2-(1H-pyrrolo[2,3-b]pyridin-5-yloxy)benzamide] |
| 0.00838 | CO[C@H]1CC[C@H](COc2ccc(S(=O)(=O)NC(=O)c3ccc(N4CCN(CC5=C(c6ccc(Cl)cc6)CC(C)(C)CC5)CC4)cc3Oc3cnc4[nH]ccc4c3)cc2[N+](=O)[O-])CC1 [Example 125, Trans-4-(4-{[2-(4-chlorophenyl)-4,4-dimethylcyclohex-1-en-1-yl]methyl}piperazin-1-yl)-N-({4-[(4-methoxycyclohexyl)methoxy]-3-nitrophenyl}sulfonyl)-2-(1H-pyrrolo[2,3-b]pyridin-5-yloxy)benzamide] |
| 0.00818 | CC1(C)CCC(CN2CCN(c3ccc(C(=O)NS(=O)(=O)c4cnc(OCC5(F)CCN(C6COC6)CC5)c(Cl)c4)c(Oc4cnc5[nH]ccc5c4)c3)CC2)=C(c2ccc(Cl)cc2)C1 [Example 277, N-[(5-chloro-6-{[4-fluoro-1-(oxetan-3-yl)piperidin-4-yl]methoxy}pyridin-3-yl)sulfonyl]-4-(4-{[2-(4-chlorophenyl)-4,4-dimethylcyclohex-1-en-1-yl]methyl}piperazin-1-yl)-2-(1H-pyrrolo[2,3-b]pyridin-5-yloxy)benzamide] |
| 0.00711 | CC1(C)CC(c2ccc(Cl)cc2)=C(CN2CCN(c3ccc(C(=O)NS(=O)(=O)c4ccc(N[C@H]5CC[C@H](N6CCOCC6)CC5)c([N+](=O)[O-])c4)c(Oc4cnc5[nH]ccc5c4)c3)CC2)CO1 [Example 33, Trans-4-(4-{[4-(4-chlorophenyl)-6,6-dimethyl-5,6-dihydro-2H-pyran-3-yl]methyl}piperazin-1-yl)-N-({4-[(4-morpholin-4-ylcyclohexyl)amino]-3-nitrophenyl}sulfonyl)-2-(1H-pyrrolo[2,3-b]pyridin-5-yloxy)benzamide] |
| 0.000538 | CC1(C)CCC(CN2CCN(c3ccc(C(=O)NS(=O)(=O)c4ccc(NC[C@H]5CN(C6COC6)CCO5)c([N+](=O)[O-])c4)c(Oc4cnc5[nH]ccc5c4)c3)CC2)=C(c2ccc(Cl)cc2)C1 [Example 361, 4-(4-{[2-(4-chlorophenyl)-4,4-dimethylcyclohex-1-en-1-yl]methyl}piperazin-1-yl)-N-{[3-nitro-4-({[(2S)-4-(oxetan-3-yl)morpholin-2-yl]methyl}amino)phenyl]sulfonyl}-2-(1H-pyrrolo[2,3-b]pyridin-5-yloxy)benzamide] |
